Laboratory results from PubChem BioAssay (NCI).
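1) Cells in 96-well plates. 2) Compound, 48 h, 5 concentrations. 3) Linear interpolation between surrounding doses. 4) Unreached endpoint = highest concentration. GI50 is the concentration that inhibits growth by half. TGI: total growth inhibition.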

What was measured:
Assay in all cases: NCI anticancer screen, dose series, 48 h
[1] = test system: SK-MEL-2 melanoma
[2] = test system: 786-0 renal
[3] = test system: KM12 colon
[4] = test system: SNB-19 CNS
[5] = test system: NCI-H460 lung
[6] = test system: HOP-62 NSCLC
[7] = test system: MDA-MB-435
[8] = test system: NCI-H522 lung
[9] = test system: HL-60(TB) leukemia
[10] = test system: MALME-3M melanoma

`CCN(CC)CCOc1ccc(/C=C2\C[C@H]3[C@H]4CC=C5C[C@@H](O)CC[C@]5(C)[C@H]4CC[C@]3(C)[C@H]2O)cc1OC` showed a GI50 [1] of 0.135 µM, a TGI [1] greater than 50 µM and a GI50 [2] of 5.09 µM. For the same compound, the TGI [2] was 16.1 µM, the GI50 [3] was 8.1 µM and the TGI [3] was 17 µM. For the same compound, the GI50 [4] was 17.1 µM, the TGI [4] was greater than 50 µM and the GI50 [5] was 13.1 µM. For the same compound, the TGI [5] was greater than 50 µM, the GI50 [6] was 8.89 µM and the TGI [6] was 22.8 µM. For the same compound, the GI50 [7] was 7.75 µM, the TGI [7] was 16.5 µM and the GI50 [8] was 0.216 µM. It also gave a TGI [8] greater than 50 µM, a GI50 [9] of 10.4 µM and a TGI [9] of 22.5 µM.

With `O=C(NNc1ccc(F)cc1)C1CCC(CNS(=O)(=O)c2ccc(Cl)c(Cl)c2)CC1` (stereo not drawn) the GI50 [1] was greater than 50 µM, the TGI [1] was greater than 50 µM and the GI50 [2] was 17.9 µM. The TGI [2] was greater than 50 µM, the GI50 [3] was 1.38 µM and the TGI [3] was 42.6 µM. For the same compound, the GI50 [4] was greater than 50 µM, the TGI [4] was greater than 50 µM and the GI50 [5] was 3.18 µM. For the same compound, the TGI [5] was greater than 50 µM, the GI50 [6] was 15.9 µM and the TGI [6] was greater than 50 µM. For the same compound, the GI50 [7] was 2.01 µM, the TGI [7] was 35.1 µM and the GI50 [8] was 22.8 µM. For the same compound, the TGI [8] was greater than 50 µM, the GI50 [9] was 1.82 µM and the TGI [9] was 9.57 µM.

In the case of `CN(C)CCC=C1c2ccccc2C(C)(C)c2ccccc21`, the GI50 [1] is reported as 6.26 µM, the TGI [1] is reported as 22.1 µM and the GI50 [2] is reported as 12.8 µM. It also gave a TGI [2] of 27 µM, a GI50 [3] of 14.8 µM and a TGI [3] of 28.4 µM. It also gave a GI50 [4] of 15.2 µM, a TGI [4] of 28.5 µM and a GI50 [5] of 9.23 µM. The TGI [5] was 21.3 µM, the GI50 [6] was 17.4 µM and the TGI [6] was 33.5 µM. The GI50 [7] was 4.56 µM, the TGI [7] was 19.5 µM and the GI50 [8] was 17.9 µM. For the same compound, the TGI [8] was 37.1 µM, the GI50 [9] was 12.4 µM and the TGI [9] was 27.1 µM.

Work on `C/C=C(/CCC1NCCC2c3ccccc3NC12)[Si](C)(C)C` (stereo not drawn) yielded a TGI [1] of 26.7 µM, a TGI [2] of 23.7 µM and a TGI [3] of 15.6 µM. The TGI [4] was 29 µM, the TGI [5] was 12.4 µM and the TGI [6] was 28.6 µM. For the same compound, the TGI [8] was 30.2 µM and the TGI [9] was 4.36 µM.

With `NC1CCC(Nc2nc(NCc3cc(Cl)ccc3O)c3ncn(C4CCCC4)c3n2)CC1` (stereo not drawn) the GI50 [1] was 0.188 µM, the TGI [1] was 0.356 µM and the GI50 [2] was 0.211 µM. The TGI [2] was 0.624 µM, the GI50 [3] was 0.132 µM and the TGI [3] was 1.02 µM. The GI50 [4] was 0.202 µM, the TGI [4] was 1.01 µM and the GI50 [5] was 0.125 µM. The TGI [5] was 0.958 µM, the GI50 [6] was 0.245 µM and the TGI [6] was 0.813 µM. It also gave a GI50 [7] of 0.149 µM, a TGI [7] of 0.328 µM and a GI50 [8] of 0.152 µM. For the same compound, the TGI [8] was 0.335 µM, the GI50 [9] was 0.165 µM and the TGI [9] was 0.388 µM.

In the case of `CN(C)CCC(CCN(C)C)=NOC(=O)c1ccccc1`, the TGI [1] is reported as greater than 100 µM, the TGI [2] is reported as greater than 100 µM and the TGI [3] is reported as greater than 100 µM. For the same compound, the TGI [4] was greater than 100 µM, the TGI [5] was greater than 100 µM and the TGI [6] was greater than 100 µM. It also gave a TGI [8] greater than 100 µM, a TGI [10] greater than 100 µM and a TGI [9] greater than 100 µM.

In the case of `NC(=O)c1ncn(CCN2CCN(C(=O)NCCCCCCNC(=O)N3CCN(CCn4cnc(C(N)=O)c4N)CC3)CC2)c1N`, the TGI [1] is reported as greater than 100 µM, the TGI [2] is reported as greater than 100 µM and the TGI [3] is reported as greater than 100 µM. For the same compound, the TGI [4] was greater than 100 µM, the TGI [5] was greater than 100 µM and the TGI [6] was greater than 100 µM. For the same compound, the TGI [10] was greater than 100 µM and the TGI [9] was greater than 100 µM.

`Cc1cc(Cl)ccc1NC(=O)CCCC(=O)C1CCC/C1=N\NC(=O)CC#N` (stereo not drawn) was tested, and the TGI [1] was greater than 100 µM, the TGI [2] was greater than 100 µM and the TGI [3] was greater than 100 µM. The TGI [4] was greater than 100 µM, the TGI [5] was greater than 100 µM and the TGI [8] was greater than 100 µM. For the same compound, the TGI [10] was greater than 100 µM and the TGI [9] was greater than 100 µM.

`COc1cccc(NC(=O)C(C)(C)C)c1SSc1c(NC(=O)C(C)(C)C)cccc1OC` gave a TGI [1] greater than 100 µM, a TGI [2] of 53.1 µM and a TGI [3] greater than 95.5 µM. It also gave a TGI [4] greater than 100 µM, a TGI [5] greater than 100 µM and a TGI [6] greater than 100 µM. The TGI [8] was 27.2 µM, the TGI [10] was greater than 63.4 µM and the TGI [9] was greater than 73.1 µM.

`O=C(CC1(O)C(=O)Nc2ccccc21)c1ccc(F)cc1` (stereo not drawn) showed a TGI [1] greater than 100 µM, a TGI [2] greater than 100 µM and a TGI [4] greater than 100 µM. For the same compound, the TGI [5] was greater than 100 µM, the TGI [8] was greater than 100 µM and the TGI [10] was greater than 100 µM. For the same compound, the TGI [9] was greater than 100 µM.

In the case of `O=C1C(Nc2ccc(Br)cc2)=C(I)C(=O)c2ncccc21`, the GI50 [1] is reported as 1.27 µM, the TGI [1] is reported as 4.77 µM and the GI50 [2] is reported as 0.905 µM. For the same compound, the TGI [2] was 2.21 µM, the GI50 [3] was 2.05 µM and the TGI [3] was 8.41 µM. The GI50 [4] was 1.41 µM, the TGI [4] was 5.16 µM and the GI50 [5] was 1.42 µM. It also gave a TGI [5] of 5.01 µM, a GI50 [6] of 2.31 µM and a TGI [6] of 8.31 µM. For the same compound, the GI50 [7] was 0.911 µM, the TGI [7] was 1.72 µM and the GI50 [10] was 0.731 µM. For the same compound, the TGI [10] was 1.41 µM, the GI50 [9] was 0.96 µM and the TGI [9] was 2.07 µM.

`COc1ccc(-c2nc(Nc3ccc(-c4nc5ccccc5[nH]4)cc3)nc(N3CCOCC3)n2)cc1` showed a GI50 [1] of 2.33 µM, a TGI [1] of 5.49 µM and a GI50 [2] of 1.44 µM. For the same compound, the TGI [2] was 3.23 µM, the GI50 [3] was 2.06 µM and the TGI [3] was 5.69 µM. The GI50 [4] was 3.49 µM, the TGI [4] was greater than 100 µM and the GI50 [5] was 2.48 µM. The TGI [5] was 6.51 µM, the GI50 [6] was 2.11 µM and the TGI [6] was 5.3 µM. The GI50 [8] was 2.36 µM, the TGI [8] was 5.85 µM and the GI50 [10] was 2.05 µM. It also gave a TGI [10] of 3.95 µM, a GI50 [9] of 1.94 µM and a TGI [9] of 5.67 µM.

`COC(=O)C1=Cc2cc(OC)c(OC)cc2[C@H](c2ccc(OC)c(OC)c2)C1C(=O)OC` (stereo partly drawn) gave a TGI [2] greater than 100 µM, a TGI [3] greater than 100 µM and a TGI [4] greater than 100 µM. For the same compound, the TGI [5] was greater than 100 µM, the TGI [6] was greater than 100 µM and the TGI [10] was greater than 100 µM. For the same compound, the TGI [9] was greater than 100 µM.

`Cn1c(=O)c2ccc(-c3ccc(Br)cc3)nc2n(C)c1=O` gave a TGI [1] greater than 100 µM, a TGI [2] greater than 100 µM and a TGI [3] greater than 100 µM. For the same compound, the TGI [4] was greater than 100 µM, the TGI [5] was greater than 100 µM and the TGI [6] was greater than 100 µM. It also gave a TGI [8] greater than 100 µM, a TGI [10] greater than 100 µM and a TGI [9] greater than 100 µM.

`COC(=O)C[CH2][Ge]([CH3])([CH3])[S]c1ccccc1` showed a GI50 [1] of 27.4 µM, a TGI [1] of 71.8 µM and a GI50 [2] of 21.6 µM. The TGI [2] was 45 µM, the GI50 [3] was 36 µM and the TGI [3] was greater than 100 µM. For the same compound, the GI50 [4] was 32.2 µM, the TGI [4] was 81.8 µM and the GI50 [5] was 16.9 µM. For the same compound, the TGI [5] was 30.6 µM, the GI50 [6] was 22.6 µM and the TGI [6] was 65.4 µM. It also gave a GI50 [8] of 10.8 µM, a TGI [8] of 23.2 µM and a GI50 [10] greater than 100 µM. The TGI [10] was greater than 100 µM, the GI50 [9] was 12.2 µM and the TGI [9] was 31.4 µM.

`CSCC[C@H](NC(=O)[C@H](CC(C)C)NC(=O)[C@@H](Cc1ccccc1)NC(=O)CNC(=O)[C@@H](NC(=O)[C@H](C)NC(=O)[C@H](Cc1c[nH]c2ccccc12)NC(=O)[C@H](CCC(N)=O)NC(=O)[C@H](N)CC(N)=O)C(C)C)C(N)=O` was tested, and the TGI [2] was greater than 12.5 µM, the TGI [3] was greater than 12.5 µM and the TGI [4] was greater than 12.5 µM. The TGI [5] was greater than 12.5 µM, the TGI [6] was greater than 12.5 µM and the TGI [7] was greater than 12.5 µM. The TGI [10] was greater than 12.5 µM and the TGI [9] was greater than 12.5 µM.

`O=C(/C=C/c1ccccc1Cl)c1cccc2ccccc12` gave a TGI [1] of 35.5 µM, a TGI [2] of 17.9 µM and a TGI [3] of 16.8 µM. It also gave a TGI [4] of 16.8 µM, a TGI [5] of 19.7 µM and a TGI [6] of 28.9 µM. The TGI [8] was 18.6 µM, the TGI [10] was 30.1 µM and the TGI [9] was 37.7 µM.
